Active and inactive are the calls of the source. The calls are words filed in the database; no cut-off is given here.
Experiments:
[1] = target: 72 kDa type IV collagenase (Homo sapiens, UniProt P08253); assay: Binding affinity to MMP2
[2] = target: T1, Disintegrin and metalloproteinase domain-containing protein 10 (Homo sapiens, UniProt O14672); assay: (§1) Inhibition of HER2 sheddase in BT474 cells by extracellular domain shedding assay; format: cell-based, BT-474
T1 sequence (O14672 whole entry): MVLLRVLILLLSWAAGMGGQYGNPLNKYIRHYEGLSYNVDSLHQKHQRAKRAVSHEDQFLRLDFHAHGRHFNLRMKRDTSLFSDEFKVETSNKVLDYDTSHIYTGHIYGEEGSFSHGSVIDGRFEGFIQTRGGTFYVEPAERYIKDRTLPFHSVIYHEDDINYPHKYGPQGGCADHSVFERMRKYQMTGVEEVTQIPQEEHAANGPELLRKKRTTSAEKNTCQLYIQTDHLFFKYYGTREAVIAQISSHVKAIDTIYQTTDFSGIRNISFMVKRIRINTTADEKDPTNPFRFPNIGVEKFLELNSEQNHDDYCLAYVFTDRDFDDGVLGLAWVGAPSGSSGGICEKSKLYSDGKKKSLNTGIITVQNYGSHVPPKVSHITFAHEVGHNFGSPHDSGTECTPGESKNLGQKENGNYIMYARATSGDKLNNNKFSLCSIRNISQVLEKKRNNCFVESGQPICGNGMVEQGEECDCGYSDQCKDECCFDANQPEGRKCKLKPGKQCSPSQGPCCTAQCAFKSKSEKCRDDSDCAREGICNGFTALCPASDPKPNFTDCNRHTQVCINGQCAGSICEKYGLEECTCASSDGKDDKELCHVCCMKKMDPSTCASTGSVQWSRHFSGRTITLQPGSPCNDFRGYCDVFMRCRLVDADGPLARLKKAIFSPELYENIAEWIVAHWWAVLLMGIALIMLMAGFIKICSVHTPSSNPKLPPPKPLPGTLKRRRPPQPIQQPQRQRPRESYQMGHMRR

[3] = target: T1, Disintegrin and metalloproteinase domain-containing protein 10; assay: Binding affinity to ADAM10
[4] = target: Matrix metalloproteinase-9 (Homo sapiens, UniProt P14780); assay: Binding affinity to MMP9
Stromelysin-1 = Stromelysin-1 (Homo sapiens, UniProt P08254); assay: Binding affinity to MMP3
Interstitial collagenase = target: T2, Interstitial collagenase (Homo sapiens, UniProt P03956); assay: Binding affinity to MMP1
T2 sequence (P03956 whole entry): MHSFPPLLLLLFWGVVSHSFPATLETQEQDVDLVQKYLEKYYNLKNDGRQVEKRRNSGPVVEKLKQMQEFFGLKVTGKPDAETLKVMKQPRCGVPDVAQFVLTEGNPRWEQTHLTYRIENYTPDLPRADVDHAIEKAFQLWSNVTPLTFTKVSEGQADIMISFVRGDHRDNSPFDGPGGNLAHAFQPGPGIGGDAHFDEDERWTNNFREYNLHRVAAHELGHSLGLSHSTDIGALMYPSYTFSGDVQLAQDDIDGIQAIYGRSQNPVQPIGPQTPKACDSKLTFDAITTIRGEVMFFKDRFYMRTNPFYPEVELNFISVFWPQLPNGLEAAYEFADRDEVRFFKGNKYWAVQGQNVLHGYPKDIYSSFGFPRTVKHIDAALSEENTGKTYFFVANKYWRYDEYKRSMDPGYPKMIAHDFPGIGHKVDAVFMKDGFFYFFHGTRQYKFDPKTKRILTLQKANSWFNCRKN

[5] = Selectivity for ADAM10 over MMP1
[6] = Cmax in mouse at 10 mg/kg, po; format: ADME, organism-based; design: dose 10 mg/kg, route oral; settings: in vivo
[7] = Selectivity for ADAM10 over MMP3
[8] = Half life in mouse; format: ADME, organism-based; settings: in vivo
[9] = Selectivity for ADAM10 over MMP9
[10] = AUC (0 to 24 hrs) in mouse at 10 mg/kg, po; format: ADME, organism-based; design: time < 24 hr, dose 10 mg/kg, route oral; settings: plasma
Plasma = assay: Protein binding in human plasma assessed as unbound fraction; format: ADME, cell-free
[11] = Selectivity for ADAM10 over MMP2
[12] = target: T3, Disintegrin and metalloproteinase domain-containing protein 10 (Homo sapiens) (UniProt O14672); assay: as §1; format: cell-based; settings: BT-474
T3 sequence (whole entry): T1 sequence (O14672 whole entry)

Sequence of 72 kDa type IV collagenase (P08253 whole entry, the tested form may be a part): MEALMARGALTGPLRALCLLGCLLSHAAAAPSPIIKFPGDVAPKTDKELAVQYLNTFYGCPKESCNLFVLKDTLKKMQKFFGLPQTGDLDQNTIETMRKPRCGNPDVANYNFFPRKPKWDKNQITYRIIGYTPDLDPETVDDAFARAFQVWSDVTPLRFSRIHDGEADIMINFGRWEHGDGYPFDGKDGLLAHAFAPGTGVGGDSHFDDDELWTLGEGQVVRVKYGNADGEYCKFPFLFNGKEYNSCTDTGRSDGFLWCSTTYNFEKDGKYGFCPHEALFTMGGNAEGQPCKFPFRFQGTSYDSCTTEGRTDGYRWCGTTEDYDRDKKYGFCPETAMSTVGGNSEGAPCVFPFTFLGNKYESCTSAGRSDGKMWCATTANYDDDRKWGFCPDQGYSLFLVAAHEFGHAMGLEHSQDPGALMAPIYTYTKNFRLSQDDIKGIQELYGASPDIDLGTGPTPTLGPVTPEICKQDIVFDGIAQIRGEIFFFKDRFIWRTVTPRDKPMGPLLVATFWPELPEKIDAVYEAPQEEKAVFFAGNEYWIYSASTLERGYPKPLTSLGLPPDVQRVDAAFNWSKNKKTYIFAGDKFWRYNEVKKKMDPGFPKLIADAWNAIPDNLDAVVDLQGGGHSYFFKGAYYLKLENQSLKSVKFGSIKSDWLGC
Sequence of Matrix metalloproteinase-9 (P14780 whole entry): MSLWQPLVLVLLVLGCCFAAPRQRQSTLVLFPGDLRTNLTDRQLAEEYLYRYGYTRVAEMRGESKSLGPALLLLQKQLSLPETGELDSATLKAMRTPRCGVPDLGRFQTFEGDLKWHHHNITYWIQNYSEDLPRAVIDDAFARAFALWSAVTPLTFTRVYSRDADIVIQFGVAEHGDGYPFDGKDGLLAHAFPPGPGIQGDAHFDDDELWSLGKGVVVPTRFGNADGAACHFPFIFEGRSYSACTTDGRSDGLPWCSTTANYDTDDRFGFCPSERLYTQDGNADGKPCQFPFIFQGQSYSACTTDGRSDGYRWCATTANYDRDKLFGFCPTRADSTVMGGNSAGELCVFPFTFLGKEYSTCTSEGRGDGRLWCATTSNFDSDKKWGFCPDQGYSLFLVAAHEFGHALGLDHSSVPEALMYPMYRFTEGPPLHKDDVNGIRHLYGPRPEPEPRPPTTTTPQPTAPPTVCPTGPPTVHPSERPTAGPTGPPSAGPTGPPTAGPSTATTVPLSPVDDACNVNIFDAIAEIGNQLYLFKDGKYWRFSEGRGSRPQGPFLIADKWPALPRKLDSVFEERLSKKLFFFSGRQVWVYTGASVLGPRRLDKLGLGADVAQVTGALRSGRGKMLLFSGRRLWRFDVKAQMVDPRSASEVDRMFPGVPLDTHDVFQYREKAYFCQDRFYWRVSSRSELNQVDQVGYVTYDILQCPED
Sequence of Stromelysin-1 (P08254 whole entry): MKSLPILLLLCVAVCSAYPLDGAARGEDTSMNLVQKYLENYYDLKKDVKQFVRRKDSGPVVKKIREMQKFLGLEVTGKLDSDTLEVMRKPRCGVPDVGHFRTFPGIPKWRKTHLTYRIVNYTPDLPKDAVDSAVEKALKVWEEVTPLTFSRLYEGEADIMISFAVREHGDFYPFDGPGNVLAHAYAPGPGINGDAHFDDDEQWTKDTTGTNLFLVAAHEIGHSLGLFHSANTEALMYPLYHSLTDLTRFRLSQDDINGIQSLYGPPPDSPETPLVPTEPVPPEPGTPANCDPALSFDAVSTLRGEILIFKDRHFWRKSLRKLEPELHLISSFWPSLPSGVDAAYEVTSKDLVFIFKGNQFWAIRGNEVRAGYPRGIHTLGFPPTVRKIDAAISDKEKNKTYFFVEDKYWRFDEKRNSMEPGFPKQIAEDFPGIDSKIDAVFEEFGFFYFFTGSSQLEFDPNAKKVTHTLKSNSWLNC

| SMILES | IC50 [1] | IC50 [2] | IC50 [3] | IC50 [4] | IC50 (Stromelysin-1) | IC50 (Interstitial collagenase) | other results |
| --- | --- | --- | --- | --- | --- | --- | --- |
| Cc1cccc(C2CCN(C(=O)[C@H]3NCC4(CC4)C[C@@H]3C(=O)NO)CC2)c1 | 391 nM | 689 nM | 194 nM | 604 nM | > 5000 nM | > 5000 nM |  |
| Cc1cccc(C2=CCN(C(=O)[C@H]3NCC4(CC4)C[C@@H]3C(=O)NO)CC2)c1 | 13 nM | 42 nM | 25 nM | 111 nM | 359 nM | 1890 nM |  |
| Cc1cc(N2CCN(C(=O)[C@H]3NCC4(CC4)C[C@@H]3C(=O)NO)CC2)ccc1C#N | < 5 nM | 594 nM | 38 nM |  |  |  |  |
| COc1cccc(C2=CCN(C(=O)[C@H]3NCC4(CC4)C[C@@H]3C(=O)NO)CC2)c1 | 50 nM | 194 nM | 40 nM | 110 nM |  | > 5000 nM |  |
| O=C(NO)[C@H]1CC2(CC2)CN[C@@H]1C(=O)N1CCC(c2ccccc2)C1 (some centres undefined) | 960 nM |  |  | > 3000 nM | > 3000 nM | > 5000 nM |  |
| Cc1cc(C2=CCN(C(=O)[C@H]3NCC4(CC4)C[C@@H]3C(=O)NO)CC2)cc(C)c1C#N | 159 nM | 129 nM | 28 nM | > 5000 nM | 3500 nM | > 5000 nM |  |
| Cc1cc(C)cc(C2=CCN(C(=O)[C@H]3NCC4(CC4)C[C@@H]3C(=O)NO)CC2)c1 | 433 nM | 86 nM | 85 nM | > 5000 nM | > 5000 nM | > 5000 nM |  |
| CC(C)c1cccc(C2=CCN(C(=O)[C@H]3NCC4(CC4)C[C@@H]3C(=O)NO)CC2)c1 | 1100 nM | 229 nM | 73 nM | 2500 nM | 5000 nM | > 5000 nM | Ratio IC50 [7]: 2; Ratio IC50 [9]: 10; Ratio IC50 [11]: > 15 |
| CC(C)c1cc(C2=CCN(C(=O)[C@H]3NCC4(CC4)C[C@@H]3C(=O)NO)CC2)ccc1C#N | 2500 nM | 902 nM | 154 nM |  |  |  |  |
| CCc1cccc(C2=CCN(C(=O)[C@H]3NCC4(CC4)C[C@@H]3C(=O)NO)CC2)c1 | 21 nM | 240 nM | 33 nM | 190 nM |  | > 5000 nM |  |
| O=C(NO)[C@H]1CC2(CC2)CN(C(=O)OCc2ccccc2)[C@@H]1C(=O)N1CC=C(c2ccccc2)CC1 | 37 nM | 431 nM | 34 nM | 309 nM | 1670 nM | > 5000 nM |  |
| CC(C)COC(=O)N1CC2(CC2)C[C@H](C(=O)NO)[C@H]1C(=O)N1CC=C(c2ccccc2)CC1 | 35 nM | 150 nM | 19 nM | 451 nM | 2600 nM | > 5000 nM |  |
| CC(C)c1cccc(C2CCN(C(=O)[C@H]3NCC4(CC4)C[C@@H]3C(=O)NO)CC2)c1 | 1390 nM | 139 nM | 16 nM |  | > 5000 nM |  |  |
| O=C(NO)[C@H]1CC2(CC2)CN[C@@H]1C(=O)N1CC=C(c2cccc(C3CC3)c2)CC1 | 24 nM |  | 48 nM |  |  |  |  |
| O=C(NO)[C@H]1CC2(CC2)CN[C@@H]1C(=O)N1CC=C(c2cc(F)cc(F)c2)CC1 | 14 nM | 24 nM | 15 nM | 916 nM | > 5000 nM | > 5000 nM |  |
| O=C(NO)[C@H]1CC2(CC2)CN[C@@H]1C(=O)N1CCC(c2ccccc2)CC1 |  | 137 nM |  |  |  |  |  |
| O=C(NO)[C@H]1CC2(CC2)CN[C@@H]1C(=O)N1CC=C(c2ccccc2)C1 |  | 13 nM |  |  |  |  |  |
| O=C(NO)[C@H]1CC2(CC2)CN[C@@H]1C(=O)N1CC=C(c2cc(Cl)cc(Cl)c2)CC1 | 5000 nM |  | 99 nM |  |  |  | Activity [12]: inactive |

More lines, main results first:

| IC50 [1] | IC50 [2] | IC50 [3] | IC50 [4] | IC50 (Stromelysin-1) | IC50 (Interstitial collagenase) | SMILES | other results |
| --- | --- | --- | --- | --- | --- | --- | --- |
| 32 nM | 42 nM | 14 nM |  |  |  | O=C(NO)[C@H]1CC2(CC2)CN[C@@H]1C(=O)N1CCN(c2cccc(Cl)c2)CC1 |  |
| > 5000 nM | 289 nM | 81 nM |  |  |  | COC(=O)N1CC2(CC2)C[C@H](C(=O)NO)[C@H]1C(=O)N1CCC(c2ccccc2)C1 (some centres undefined) |  |
| 106 nM | 26 nM | 37 nM | 2620 nM | 4000 nM | > 5000 nM | O=C(NO)[C@H]1CC2(CC2)CN(C(=O)OC2CCOCC2)[C@@H]1C(=O)N1CCN(c2ccccc2)CC1 |  |
| 488 nM | 34 nM | 26 nM | 3050 nM | > 5000 nM | > 5000 nM | COC(=O)N1CC2(CC2)C[C@H](C(=O)NO)[C@H]1C(=O)N1CC=C(c2ccccc2)C1 | Ratio IC50 [5]: 2; Cmax [6]: 3000 nM; Ratio IC50 [7]: 11; half-life [8]: 1.8 h; Ratio IC50 [9]: 40; AUC(0-t) at 24 h [10]: 2.8 µM·h; PPB (Plasma): 34%; Ratio IC50 [11]: 37 |
| 53 nM | 93 nM | 51 nM | 677 nM | > 5000 nM | > 5000 nM | CS(=O)(=O)N1CC2(CC2)C[C@H](C(=O)NO)[C@H]1C(=O)N1CC=C(c2ccccc2)CC1 |  |
| 86 nM | 45 nM | 27 nM | 1500 nM | > 5000 nM | > 5000 nM | CS(=O)(=O)N1CC2(CC2)C[C@H](C(=O)NO)[C@H]1C(=O)N1CCN(c2ccccc2)CC1 |  |
| 50 nM | 72 nM | 40 nM | 160 nM | > 5000 nM | > 5000 nM | CC(=O)N1CC2(CC2)C[C@H](C(=O)NO)[C@H]1C(=O)N1CC=C(c2ccccc2)CC1 |  |
| > 5000 nM |  | 1100 nM |  |  | > 5000 nM | CC(C)c1cccc(N2CCN(C(=O)[C@H]3NCC4(CC4)C[C@@H]3C(=O)NO)CC2)c1 | Activity [12]: inactive |
| 63 nM | 184 nM | 187 nM | 1270 nM | > 1000 nM | > 5000 nM | Cc1cccc(N2CCN(C(=O)[C@H]3NCC4(CC4)C[C@@H]3C(=O)NO)CC2)c1 |  |
| 472 nM | 169 nM | 19 nM |  |  |  | COC(=O)N1CC2(CC2)C[C@H](C(=O)NO)[C@H]1C(=O)N1CCC(c2ccccc2)CC1 |  |

Source: ChEMBL document CHEMBL1140791, “Design and identification of selective HER-2 sheddase inhibitors via P1' manipulation and unconventional P2' perturbations to induce a molecular metamorphosis” (Bioorg Med Chem Lett, 2008)
